Test results published in patent US5994336A, “Method of inhibiting proliferation of cells by administering an aminosterol compound” (priority 1995, dated 1999).
Entries after “also recorded” stand apart in the source; their conditions may differ.

Assays:
human NHE1 = assay: NHE1 inhibition, internal pH (BCECF-AM) in transfected PS120 fibroblasts; assay type: cell-based; details: 5 μg/ml; FIG. 2B
Procedure: (§1) PS120 fibroblasts transfected with rabbit or human NHE1 were grown as described above.

rabbit NHE1 = assay: as above; assay type: cell-based; details: 5 μg/ml; FIG. 2A
Procedure: as §1

[1] = tested on: human umbilical venous endothelial cells; assay: LPS-induced neutrophil adherence; assay type: cell-based; details: squalamine 10 μg, 1.0 μg or 0.1 μg
Text: Methods 109, 1988, 175-184.

[2] = tested on: Xenopus tadpole, stage 59-60; assay: Tadpole assay; assay type: in vivo, Xenopus laevis; details: 10 μg/ml; for pharmacological response in tadpole (words): stage 59-60
Text: For example, substances that destroy all of the animal's epithelium, both adult and embryonic, could be regarded as toxic.
The volume of liquid is sufficient for the animal to swim freely and drink from the solution. […] If the volume of liquid is not sufficient to permit oral intake, the effects that are observed would result from absorption through the surface epithelium.
In another embodiment of this assay, a solution of a compound in water can be injected directly into the abdomen of the animal using standard techniques.
After an amount of time, typically about 60 minutes, the occlusion of blood flow through capillaries in the tadpole's tail are observed under an inverted microscope at a magnification of roughly 100×.
In the assay, each of the steroids was dissolved in 100 ml of distilled water at a concentration of 10 μg/ml. Stage 59-60 Xenopus tadpoles were introduced and evaluated by light microscopy and gross observation 1 hour later.

B16 melanoma = assay: Suppression of growth of B16 melanoma in C57B mice; assay type: in vivo, mouse
Procedure: The growth of B16 melanoma in C57B mice is dependent upon neovascularization.
Using the growth of B16 melanoma cells in C57B mice, a recognized model for the evaluation of inhibitors of angiogenesis on the growth of cancers, the effects of subcutaneous, intraperitoneal and oral administration of squalamine were evaluated.

[3] = tested on: PHA-stimulated human lymphocytes; assay: Inhibition of mitogen (PHA)-stimulated growth of human T-cells; assay type: cell-based
Text: Results are tabulated below.

[4] = listed as Compound 1256 (Squalamine)

CC(C)[C@@H](CC[C@@H](C)[C@H]1CC[C@H]2[C@@H]3[C@H](O)C[C@H]4C[C@@H](NCCCNCCCCN)CC[C@]4(C)[C@H]3CC[C@]12C)OS(=O)(=O)O [squalamine]
inhibitory activity against human NHE1 (human NHE1): no inhibitory activity | inhibitory activity against rabbit NHE1 (rabbit NHE1): no inhibitory activity | inhibition of neutrophil adherence [1]: no inhibition | tissues or functions not affected in tadpole [2]: unaltered blood flow through the fine capillaries of the hands and feet | pharmacological response in tadpole (words) [2]: blood flow through the capillaries of the tail shut down; also recorded: common vascular occlusive effect | pharmacological response in tadpole (words) [2, 4]: Vascular occlusion in fine capillaries of tail | tissues or functions not affected in tadpole [2, 4]: No effect on vascular flow through hands or feet | body weight and hematologic parameters (B16 melanoma; B16-bearing mice): no significant depression | suppression of tumor volume (B16 melanoma; intraperitoneal, FIGS. 4B, 4B-1): dose-dependent suppression of tumor volume | suppression of tumor volume (B16 melanoma; oral, FIGS. 4C, 4C-1): dose-dependent suppression of tumor volume | suppression of tumor volume (B16 melanoma; subcutaneous, FIGS. 4A, 4A-1): dose-dependent suppression of tumor volume | inhibition of blast transformation [3]: Some effect
